Values quoted from earlier work as cited in US6576227B1, “Peroxidase-activating oral compositions” (Oraceutical Innovative Properties, LLC, priority 1995, dated 2003).

Columns and labels:
[1] = 20° C.
cellular DNA = settings: elevated concentrations (greater than about 0.1 percent or about 29 millimoles per liter)

Row | water solubility [1] [grams per liter] | concentration of saturated solution ([1]; water) [%] | pH upon dissolution, 1% solution (1% solution in water) | pH, saturated solution (saturated solution in water) | Structure (SMILES) | mutagenicity and cellular DNA damage (cellular DNA)
1 | 800 | 44.4 | approximately 4.05 | approximately 3.40 | NC(N)=O.OO [Carbamide peroxide] | –
2 | – | – | – | – | OO [hydrogen peroxide] | mutagenic
